The NIST ThermoML archive (doi:10.1016/j.jct.2016.02.014)
± gives the expanded uncertainty stated by the source.

How the values were obtained:
[1] = xn = mol fraction of the nth substance listed; details: 100 kPa, Liquid, x1 = 1; for viscosity: Capillary tube (Ostwald / Ubbelohde) method; for mass density: Vibrating tube method
[2] = 101.33 kPa, Liquid; for viscosity: Capillary tube (Ostwald / Ubbelohde) method; for mass density: Vibrating tube method

CCCCn1cc[n+](C)c1.N#CN=C=[N-] [1-butyl-3-methylimidazolium dicyanamide] + O=C1CCCO1
[1]
Details | mass density [kg/m3] | viscosity [mPa·s]
273.15 K | 1075.2 ± 8.6 | 95.68 ± 2.4
283.15 K | 1068.94 ± 8.6 | 55.27 ± 1.2
293.15 K | 1062.52 ± 8.5 | 35.04 ± 0.8
298.15 K | 1059.33 ± 8.5 | 28.5 ± 0.65
303.15 K | 1056.15 ± 8.5 | 23.52 ± 0.53
313.15 K | 1049.85 ± 8.4 | 16.95 ± 0.39
323.15 K | 1043.61 ± 8.4 | 12.65 ± 0.29

CCCCn1cc[n+](C)c1.N#CN=C=[N-] [1-butyl-3-methylimidazolium dicyanamide]
[2]
Details | mass density [kg/m3] | viscosity [mPa·s]
273.15 K | 1075.2 ± 8.6 | 95.68 ± 2.4
278.15 K | 1072.13 ± 8.6 | 71.85 ± 1.7
283.15 K | 1068.94 ± 8.6 | 55.27 ± 1.2
288.15 K | 1065.72 ± 8.6 | 43.57 ± 0.99
293.15 K | 1062.52 ± 8.5 | 35.04 ± 0.8
298.15 K | 1059.33 ± 8.5 | 28.5 ± 0.65
303.15 K | 1056.15 ± 8.5 | 23.52 ± 0.53
308.15 K | 1052.99 ± 8.5 | 19.87 ± 0.45
313.15 K | 1049.85 ± 8.4 | 16.95 ± 0.39
318.15 K | 1046.72 ± 8.4 | 14.61 ± 0.33
323.15 K | 1043.61 ± 8.4 | 12.65 ± 0.29
328.15 K | 1040.51 ± 8.4 | –
333.15 K | 1037.43 ± 8.3 | –
